“And” between values parts separate entries of the source, which are not always exact repeats. Identical values can stand only once. “Also recorded” adds a separate entry of the source.
Test system: myasthenia gravis
Test: Clinical curative effects in 128 cases with myasthenia gravis
Format: in vivo, human
Method: 128 patients with correctly diagnosed myasthenia gravis were used in the trial.
Patients affected with myasthenia gravis (MG) with typical clinical symptoms which improved after using neostigmine were the subjects for testing and verification. […] It was generally used for at least ten days and each dosage was 0.4-0.5 mg. […] The injections were all given in the morning and on the morning prior to the injections anticholinesterase drugs were discontinued. Neither the patients nor the doctors knew which drug was being injected. Later, the symptoms, the duration of the improvements, if any, which were obtained by the drugs and the side effects were recorded. Based on these factors, the relative merits of the two drugs were established.
(+) (++) and (+++) was used as the standard for the seriousness of the symptoms, (+++) was the most serious.
1. Prolapse of eyelids: the tear width of the eye after use of the drug was measured. If there was an increase of 0.2 cm above that before use of the drug, then the effect was "+", if the increase was 0.4 cm then the effect was "++" and if the increase was 0.6 cm then the effect was "+++".
2. Impairment to eyeball activity: when the eyeball was basically fixed and immovable then it was "+++", those who had reoccuring major complaints and basically normal activities were "+" and those in an intermediate state were "++".
3. Difficulties in swallowing: when swallowing was still possible but there was a feeling of difficulty or there was slowing of the speed of the intake of food then the patient was treated as "+"; when the patient could swallow but it was very slow then the patient was "++"; when the patient was basically unable to swallow the rating was "+++".
4. Systemic myasthenia: patients who were able to walk but felt very exhausted were "+"; patients who were able to stand up and walk with difficulty a short distance in the ward or corridor were "++"; and patients who could not get out of bed were "+++".

C/C=C1\[C@H]2C=C(C)C[C@]1(N)c1ccc(=O)[nH]c1C2 [Huperzine A, (5R, 9R, 11E)-5-amino-11-ethylidene-5,6,9,10-tetrahydro-7-methyl-5,9-methanocycloocta[b]pyridin-2(1H)-one]
initial effect within 15-30 minutes, % (127 cases): 85.03%
initial effect within 15-30 minutes, No. of Cases (127 cases): 108 cases
optimal curative effect within 45-60 minutes, % (127 cases): 51.18%
optimal curative effect within 45-60 minutes, No. of Cases (127 cases): 65 cases
time of maximal effect, longest (127 cases): 240 min
time of maximal effect, shortest (127 cases): 18 min
initial effect time, average (X ± SD, 127 cases): 21.92 ± 19.56 min and 21.92 min
time of maximal effect, average (X ± SD, 127 cases): 50.34 ± 25.65 min and 50.34 min
average action time among the 40 cases (cases exceeding 6 hours): 10.42 ± 5.80 h
longest action time among the 40 cases (cases exceeding 6 hours): 24 h
shortest action time among the 40 cases (cases exceeding 6 hours): 6 h
sustaining time of effect, shortest (eye muscle type): 0.66 h
action time exceeded 6 hours, % (human, in vivo): 31.64%
action time exceeded 6 hours, cases (human, in vivo): 40 cases
action time reached 4-6 hours, % (human, in vivo): 34.64%
action time reached 4-6 hours, cases (human, in vivo): 44 cases
average action time (human, in vivo): 5.94 ± 4.92 h
cases with marked effects (human, in vivo): 71 cases
cases with marked effects, % (human, in vivo): 55.46%
initial effect time, longest (im injection): 222 min
physical symptom initial improvement time, longest (im injection): 3.7 h
physical symptom initial improvement time, shortest (im injection): 10 min
effect on myasthenia gravis condition (im injection, 0.4 mg): effective anticholinesterase drug for treating myasthenia gravis; also recorded: able to definitely improve the myasthenia gravis condition
cases rated effective (not marked): 56 cases
cases rated effective, % (not marked): 43.75%
cases for which drug was effective (of 128): 127 cases
cases for which drug was effective, % (of 128): 99.21%
sustaining time of effect, longest (systemic and eye muscle type): 24 h

Source: US5177082A, “Huperzines and analogs” (priority 1990, dated 1993)
